{"source": "patent EP4781984A1", "about": "(Beyang Therapeutics Co., Ltd., priority 2023, dated 2025)", "key": {"[1]": {"assay": "Thermodynamic solubility test", "assay_type": "physicochemical", "settings": "buffer solution, aqueous buffer, thermodynamic from solid; thermodynamic solubility, room temperature, 8 hours shaking; buffers pH 2.0, 6.5, 7.4 used, pH of the tabulated value not given", "how_it_was_run": "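Samples sonicated 10 min, shaken 8 h at room temperature, re-sonicated and centrifuged at 13000 rpm for 15 min. Supernatant recentrifuged and analysed by LC-MS, with concentrations quantified against a 3–5 point calibration curve.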"}, "[2]": {"assay": "Effect of gellan gum on formulation viscosity and viscosity change after adding simulated tear fluid (Example 10)", "assay_type": "physicochemical", "settings": "compound 5 mg/mL, Gellan Gum 0.15% w/v; for Viscosity after Adding STF: simulated tear fluid added, volume ratio 3.6:1", "description": "Example 10: Effect of Gellan Gum on Formulation Viscosity and Viscosity Change after Adding Simulated Tear Fluid\nThis example investigates the effect of gellan gum on formulation viscosity and simulates the scenario of eye drop instillation by adding simulated tear fluid to the formulation at a volume ratio of 3.6:1. Table 23 Effect of Gellan Gum on Formulation Viscosity\nThe ophthalmic drop formulation in this example was prepared using the preparation method from Example 8 (i.e., one type of Formulation II of the present invention). Except for compound , the other components in the formulation are: 30% Hydroxypropyl-β-cyclodextrin solution (containing 2% polyoxyethylene castor oil EL): 50 mM Tris(hydroxymethyl)aminomethane-Hydrochloric Acid Buffer (containing 2% Poloxamer 188, 0.3% Gellan Gum Gelrite, w/v) = 50:50 v/v, adjusted to pH using Methanesulfonic Acid and Tris(hydroxymethyl)aminomethane."}, "[3]": {"assay": "Ophthalmic formulations based on in situ salt formation technology: composition and state (Example 8)", "assay_type": "physicochemical", "settings": "for State Description: pH ~7; for State Description: pH / State Description: state: Table 17: 5 mg/mL, HP-β-CD 15, Poloxamer 188 1, Gelrite 0.15, Tris-HCl (pH 6.8) 25mM", "text": "In the following ophthalmic formulation preparation examples, \"solution\" refers to a clear, transparent liquid without visible insoluble matter. \"Near-clear solution\" refers to a liquid that appears close to a solution upon visual observation but may contain a small amount of insoluble particles or have a slightly opaque color. \"Suspension\" refers to a liquid that is visibly turbid or opaque. \"Gel\" refers to a completely or partially gel-like solid.\nExample 8: Ophthalmic Formulation Based on In Situ Salt Formation Technology\nTherefore, by preparing ophthalmic formulation compositions based on in situ salt formation technology, the solubility of the compounds can be further improved.\nAccording to the formulation composition shown in the table below, weigh the compound powder, add 50% of the total volume (v/v) of a 30% (w/v) aqueous solution of hydroxypropyl-β-cyclodextrin (containing surfactant), and disperse by sonication; next, add an appropriate volume of pH regulator and sonicate until clear; then, add an equal volume of buffer containing solubilizer, viscosity modifier, etc., for dilution, and immediately vortex to mix; finally, add an appropriate volume of alkali regulator to adjust the solution pH to approximately 7, to prepare an eye drop formulation.\nUsing the in situ salt formation method, the compound is first dispersed in a solution containing Hydroxypropyl-β-cyclodextrin, then different acids are added to adjust the pH to 3-5, allowing the compound to fully or nearly fully dissolve, followed by adding the remaining components and adjusting the pH to approximately 7. […] Based on the visual dissolution effect after acid addition, methanesulfonic acid, acetic acid, and lactic acid were preliminarily selected as pH regulators. The preliminarily selected acids were used in subsequent tests with higher compound concentrations. Table 18 Formulation Composition and State"}, "[4]": {"system": "melanin", "assay": "Compound binding to melanin", "assay_type": "in vitro ADME", "settings": "cuttlefish (Sepia officinalis), melanin suspension (1 mg/mL), percentage of free drug (not bound to melanin), 2 µM compound, melanin 1 mg/mL in PBS pH 7.4, 37°C", "how_it_was_run": "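Compound at 2 µM final incubated with 1 mg/mL Sepia melanin in PBS pH 7.4, 37°C, 2 hours with shaking; blank in PBS with 0.1% BSA. Supernatant concentration by LC-MS/MS. Fb = 100 − (Ctest/Ccontrol) × 100%.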"}, "[5]": {"settings": "0.05M Fumaric Acid 10, 0.5M Tris 0.5"}, "[6]": {"settings": "1M Acetic Acid 1, 0.5M Tris 0.5"}, "[7]": {"settings": "1M Lactic Acid 1, 0.5M Tris 0.5"}, "[8]": {"settings": "1M Maleic Acid 1, 0.5M Tris 1.5"}, "[9]": {"settings": "1M Methanesulfonic Acid 1, 0.5M Tris 0.5"}, "[10]": {"settings": "1M Tartaric Acid 1, 0.5M Tris 1"}}, "data": [{"compound": "CCNC(=O)c1cc(F)ccc1Sc1ccc2c(/C=C/c3ccc(CN4CCCC4)cn3)n[nH]c2c1", "note": "[Compound I-97, N-ethyl-5-fluoro-2-({3-[(E)-2-{5-[(pyrrolidin-1-yl)methyl]pyridin-2-yl}ethenyl]-1H-indazol-6-yl}sulfanyl)benzamide]", "values": [{"measurement": "solubility at 8 h", "setting": "[1]", "result": 319, "unit": "µg/mL"}, {"measurement": "Formulation Viscosity", "setting": "[2]; Test temperature 25 °C", "result": 19.01, "unit": "mPa.s"}, {"measurement": "Viscosity after Adding STF", "setting": "[2]; Test temperature 25 °C", "result": 24.19, "unit": "mPa.s"}, {"measurement": "Formulation Viscosity", "setting": "[2]; Test temperature 37 °C", "result": 7.97, "unit": "mPa.s"}, {"measurement": "Viscosity after Adding STF", "setting": "[2]; Test temperature 37 °C", "result": 21.95, "unit": "mPa.s"}, {"measurement": "State Description", "setting": "[3]; Compound 10 mg/ml, 1M Acetic Acid 2%, no Polyoxyethylene castor oil EL, 0.5M Tris 1%", "result": "pH ~7, near-clear solution, with opalescence"}, {"measurement": "State Description", "setting": "[3]; Compound 10 mg/ml, 1M Lactic Acid 2%, no Polyoxyethylene castor oil EL, 0.5M Tris 1%", "result": "pH ~7, near-clear solution, with opalescence"}, {"measurement": "State Description", "setting": "[3]; Compound 10mg/ml, 1M Methanesulfonic Acid 2%, no Polyoxyethylene castor oil EL, 0.5M Tris 1%", "result": "pH ~7, near-clear solution, with opalescence"}, {"measurement": "State Description", "setting": "[3]; Compound 15 mg/ml, 1M Methanesulfonic Acid 3%, no Polyoxyethylene castor oil EL, 0.5M Tris 1%", "result": "pH ~7, near-clear solution, with opalescence"}, {"measurement": "State Description", "setting": "[3]; Compound 20 mg/ml, 1M Methanesulfonic Acid 4%, Polyoxyethylene castor oil EL 1%, 0.5M Tris 1%", "result": "solution"}, {"measurement": "State Description", "setting": "[3]; Compound 20 mg/ml, 1M Methanesulfonic Acid 4%, no Polyoxyethylene castor oil EL, 0.5M Tris 0.5%", "result": "pH ~7, near-clear solution, with opalescence"}, {"measurement": "State Description: pH", "setting": "[3]; [5]", "result": "~7"}, {"measurement": "State Description: state", "setting": "[3]; [5]", "result": "suspension"}, {"measurement": "State Description: pH", "setting": "[3]; [6]", "result": "~7"}, {"measurement": "State Description: state", "setting": "[3]; [6]", "result": "near-clear solution"}, {"measurement": "State Description: pH", "setting": "[3]; [7]", "result": "~7"}, {"measurement": "State Description: state", "setting": "[3]; [7]", "result": "near-clear solution"}, {"measurement": "State Description: pH", "setting": "[3]; [8]", "result": "~7"}, {"measurement": "State Description: state", "setting": "[3]; [8]", "result": "near-clear solution"}, {"measurement": "State Description: pH", "setting": "[3]; [9]", "result": "~7"}, {"measurement": "State Description: state", "setting": "[3]; [9]", "result": "near-clear solution"}, {"measurement": "State Description: pH", "setting": "[3]; [10]", "result": "~7"}, {"measurement": "State Description: state", "setting": "[3]; [10]", "result": "near-clear solution"}, {"measurement": "fraction unbound at 2 h, 2 µM", "setting": "[4]", "result": "0.01 to 0.05"}]}, {"compound": "O=C(NC1CC1)c1cccc(F)c1Sc1ccc2c(/C=C/c3cnn(CCCN4CCCC4)c3)n[nH]c2c1", "note": "[Compound I-44, N-cyclopropyl-3-fluoro-2-({3-[(E)-2-{1-[3-(pyrrolidin-1-yl)propyl]-1H-pyrazol-4-yl}ethenyl]-1H-indazol-6-yl}sulfanyl)benzamide]", "values": [{"measurement": "solubility at 8 h", "setting": "[1]", "result": 564, "unit": "µg/mL"}, {"measurement": "Formulation Viscosity", "setting": "[2]; Test temperature 25 °C", "result": 23.27, "unit": "mPa.s"}, {"measurement": "Viscosity after Adding STF", "setting": "[2]; Test temperature 25 °C", "result": 27.26, "unit": "mPa.s"}, {"measurement": "Formulation Viscosity", "setting": "[2]; Test temperature 37 °C", "result": 9.53, "unit": "mPa.s"}, {"measurement": "Viscosity after Adding STF", "setting": "[2]; Test temperature 37 °C", "result": 24.06, "unit": "mPa.s"}, {"measurement": "State Description", "setting": "[3]; Table 21, Compound 10 mg/ml, 1M Methanesulfonic Acid 1%, Polyoxyethylene castor oil EL 1%, no 0.5M Tris", "result": "near-clear solution"}, {"measurement": "State Description", "setting": "[3]; Table 21, Compound 20 mg/ml, 1M Methanesulfonic Acid 4%, Polyoxyethylene castor oil EL 1%, 0.5M Tris 1%", "result": "near-clear solution"}, {"measurement": "fraction unbound at 2 h, 2 µM", "setting": "[4]", "result": "0.01 to 0.05"}]}]}
